# Columns and labels:
# [1] = biological target: T1, cobra venom phospholipase A2 (Naja atra, UniProt P00598); assay: Inactivation of phospholipase A2 by an irreversible inhibitor, carbonothioate assay of residual activity; format: biochemical; details: enzyme preincubated with 100 μM inhibitor at 40° C.; substrate 1-decanoyl-2-octylcarbonothioyl-sn-glycero-3-phosphocholine 0.5 mM, 4.24 mM Triton X-100; FIG. 9
# T1 construct: cobra venom phospholipase A2 (Naja naja atra); from tissue; host or cells: venom of Naja naja atra
# T1 sequence (P00598 28-146 limits assumed): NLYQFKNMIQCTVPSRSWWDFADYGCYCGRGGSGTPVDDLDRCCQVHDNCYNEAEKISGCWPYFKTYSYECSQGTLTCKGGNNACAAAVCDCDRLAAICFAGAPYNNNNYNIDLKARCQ
# Procedure: (§1) (b) Method: The desired amount of carbonothioate phospholipid in methylene chloride was evaporated to dryness under a stream of nitrogen. An appropriate volume of buffer A is added. This solution was sonicated in a bath sonicator to clearness. The assay was carried out at 40° C. A cuvette, containing 0.3 mL of assay mixture and 5 μL of DTNB was placed in the compartment of a spectrophotometer thermostated at 40° C. After equilibration of the substrate for 2 min at 40° C., a stable baseline was recorded for 150 sec. To initiate the reaction, cobra venom phospholipase A2 (Naja naja atra) (5 μL containing 125 ng protein in buffer B) was added to the cuvette and the reaction was recorded spectrophotometrically at 412 nm for 150 sec. The phospholipase activity is calculated using the extinction coefficient of 12,000 M^-1 cm^-1. Between each run, the cuvette is rinsed with Clorox, water and acetone.
# Method: The appropriate volume of carbonothioate phospholipid in methylene chloride was dried under a stream of nitrogen. To prepare mixed micelles, the appropriate volume of buffer C was added, and the volume was brought to the final volume with buffer B. This solution was bath-sonicated to obtain a clear solution. The enzymatic activity was determined similarly to Example 5 except that 500 ng enzyme was used. […]
# [2] = biological target: T1, cobra venom phospholipase A2; assay: Inhibition of phospholipase A2 by a reversible inhibitor, carbonothioate assay; format: biochemical; details: substrate 1-decanoyl-2-octylcarbonothioyl-sn-glycero-3-phosphocholine 0.5 mM, standard buffer with 4.24 mM Triton X-100; inhibitor 1 μM to 20 μM; FIG. 8
# Procedure: as §1
# Method: The appropriate volume of carbonothioate phospholipid in methylene chloride was dried under a stream of nitrogen. […] The enzymatic activity was determined similarly to Example 5 except that 500 ng enzyme was used.
# A solution of 1-decanoyl-2-octylcarbonothioyl-sn-glycero-3-phosphocholine (1.0 mM) in buffer C was prepared as in Example 6. […] The enzymatic activity in the presence of the amide analog was determined as in Example 6.
SMILES,inhibition of cobra venom phospholipase A2 as followed by the carbonothioate assay [1],inhibition of cobra venom phospholipase A2 as determined by the carbonothioate assay [2]
CCCCCCCCCC(=O)OCC(COP(=O)([O-])OCC[N+](C)(C)C)OC(=O)CC(C)(C)CC(=O)Oc1ccc([N+](=O)[O-])cc1 (centres unmarked) [irreversible inhibitor],time-dependent inhibition,–
"CCCCCCCCCCCCCCCCSC[C@H](COP(=O)([O-])OCC[N+](C)(C)C)NC(=O)CCCCCCCCCCCCCCC [amide substrate analogs, 1-hexadecyl-thio-2-hexadecanoylamino-1,2-dideoxy-sn-glycero-3-phosphocholine]",–,inhibition
